Assay [1] addresses T1, Human isolated cathepsin L (Homo sapiens, UniProt P07711).
T1 construct: Human isolated cathepsin L (Enzo Life Sciences) was assayed spectrophotometrically; purchased Enzo Life Sciences
Description: Cathepsin L assay (chromogenic substrate Z-Phe-Arg-pNA). It counts as biochemical. Conditions: 50 µM inhibitor, 60 min, 100% = no inhibitor, n.i. = residual activity ≥ 95%; for remaining activity at 50 µM: read-out: Percentage residual activity of human cathepsin L. The protocol: (§1) Cathepsin assays. Assays with human cathepsins B, S, L, and K were carried out as described previously. Stock solutions of substrates and inhibitors were prepared in DMSO. The final DMSO concentration was 2%. All test compounds were investigated in duplicate at a concentration of 50 µM to determine residual activities based on endpoints of substrate consumption after 60 min. Ki values were obtained in duplicate measurements with six different inhibitor concentrations, and 60-min-progress curves were analyzed by linear regression. IC50 values were obtained by non-linear regression using the equation vi = v0/(1 + ([I]/IC50), where vi is the product formation rate at different inhibitor concentrations, v0 is the uninhibited product formation rate, [I] is the inhibitor concentration, and IC50 is the half-maximal inhibitory concentration. IC50 values are transformed to Ki values using the Cheng-Prusoff equation.
Human isolated cathepsin L (Enzo Life Sciences) was assayed spectrophotometrically (Cary 50 Bio, Varian) at 405 nm and 37 °C. The assay buffer was 100 mM sodium phosphate buffer pH 6.0, 100 mM NaCl, 5 mM EDTA, and 0.01% Brij 35. For activation, an enzyme stock solution was diluted with assay buffer containing 5 mM DTT and incubated for 30 min at 37 °C. The final concentration of the chromogenic substrate Z-Phe-Arg-pNA was 100 µM (5.88 × Km).
(§2) Cathepsins inhibition. Compounds 4a–l were then evaluated for their ability to inhibit Cat S. Besides Cat S, the set of assays included three related human cathepsins, B, L, and K, all members of the class of lysosomal cysteine proteases (see Table S1 in the Supporting Information). Following reported procedures, [39, 40, 41] percentage or residual activities were determined using chromogenic or fluorogenic peptide substrates, with endpoints measured after 60 min of substrate consumption. To determine Ki values, progress curves were followed over 60 min and analyzed by linear regression. Ki values were then obtained by non-linear regression.

Assay [2] concerns the target T2, Human recombinant cathepsin K (Homo sapiens, UniProt P43235).
T2 construct: purchased Enzo Life Sciences
T2 sequence (P43235 115-329): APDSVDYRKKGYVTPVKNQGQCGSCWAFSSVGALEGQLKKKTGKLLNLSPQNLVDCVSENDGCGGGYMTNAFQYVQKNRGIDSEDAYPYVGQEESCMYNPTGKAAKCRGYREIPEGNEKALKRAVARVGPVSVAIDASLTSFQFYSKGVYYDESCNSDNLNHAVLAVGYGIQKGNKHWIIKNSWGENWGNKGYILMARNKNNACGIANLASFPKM
Put plainly: Cathepsin K assay (substrate Z-Leu-Arg-AMC). Type of assay: biochemical. Particulars: 50 µM inhibitor, 60 min, 100% = no inhibitor, n.i. = residual activity ≥ 95%; for remaining activity at 50 µM: read-out: Percentage residual activity of human cathepsin K. The protocol:
as §1
Human recombinant cathepsin K (Enzo Life Sciences) was assayed fluorometrically (FLUOstar Optima plate reader, BMG Labtech) with an emission wavelength of 360 nm and an absorption wavelength of 460 nm. The assay buffer was 100 mM sodium citrate pH 5.0, 100 mM NaCl, 1 mM EDTA, 0.01% CHAPS. For activation, an enzyme stock solution was diluted with assay buffer containing 5 mM DTT and incubated for 30 min at 37 °C. The final concentration of the chromogenic substrate Z-Leu-Arg-AMC was 40 µM (13.33 × Km).
as §2

The nature of assay [3]: Oxygen radical absorbance capacity assay (ORAC-FL). Particulars: ORAC-FL method; mean ± SEM. The protocol:
Oxygen radical absorbance capacity assay. The evaluation of the antioxidant activity of compounds 4a–l was carried out using the previously established ORAC-FL method, and detailed information is provided in the supporting information.
Antioxidant assay. The antioxidant assessment was conducted by evaluating the compounds 4a–l through the determination of oxygen radical absorbance capacity (ORAC) using the ORAC-Fluorescein (ORAC-FL) method […]
Oxygen radical absorbance capacity assay.
ORAC-FL method, using fluorescein as a fluorescent probe. Shortly, fluorescein and the antioxidants
2,2'-Azobis(amidinopropane)
(emission wavelength) every minute for 1 hour. […]

The test system of another assay is Nrf2-ARE. Put plainly: Nrf2 transcriptional activation, cell-based luciferase assay. Conditions: 24 h; for EC50: CD = concentration required to double the specific activity of the luciferase reporter, read-out: Nrf2 Induction Potencies CD. The protocol: Nrf2 transcriptional activation potencies. The assessment of the Nrf2 transcriptional activation potencies of compounds 4a–l was carried out using the previously described method, and detailed information is provided in the supporting information.
Nrf2 transcriptional activation potencies of compounds 4a–l. […] AREc32 cells were exposed to escalating concentrations of each compound (1, 5, 10, 25, 50, 100, 125, and 150 μM) for 24 h to reach the cytotoxic threshold, followed by measurements of luciferase activity. Melatonin was used as a positive control.
4e H Cl H n.i. 76 n.i. […]
Nrf2 transcriptional activation potencies. The stable NRF2/ARE luciferase reporter HEK293 cell line
(Promega) according to the manufacturer's instructions. To assess cellular viability, the stable

Assay [4] concerns the target T3, Human recombinant cathepsin S (Homo sapiens, UniProt P25774).
T3 construct: purchased Enzo Life Sciences
Put plainly: Cathepsin S assay (fluorogenic substrate Z-Phe-Arg-AMC). Type of assay: biochemical. Conditions: 50 µM inhibitor, 60 min; 100% = no inhibitor; n.i. = residual activity ≥ 95%; read-out: Percentage residual activity of human cathepsin S. The protocol:
as §1
Human recombinant cathepsin S (Enzo Life Sciences) was assayed fluorometrically (FLUOstar Optima plate reader, BMG Labtech) at 25 °C with an emission wavelength of 360 nm and an absorption wavelength of 460 nm. The assay buffer was 100 mM sodium phosphate buffer pH 6.0, 100 mM NaCl, 5 mM EDTA, 0.01% Brij 35. For activation, an enzyme stock solution was diluted with assay buffer containing 5 mM DTT and incubated for 60 min at 37 °C.
as §2

Assay [5] relates to voltage-gated calcium channels. Put plainly: Calcium channel blockade (FLIPR Calcium 6 indicator, SH-SY5Y cells). Type of assay: cell-based, human. Conditions: compounds at 10 µM, KCl/CaCl2 stimulation, n.i. = no inhibition. The protocol: Calcium channel blockade. Evaluation of the calcium channel blockade of compounds 4a–l was performed using the FLIPR Calcium 6 indicator according to a previously established protocol. Briefly, human neuroblastoma cell line SH-SY5Y seeded out on 96-well plate were treated with fluorescent calcium indicator (FLIPR Calcium 6, Molecular Devices). Cells were incubated with indicator for 2 h at 37 °C, facilitating internalization of the indicator. Subsequently, cells were exposed to nimodipine (10 µM, used as reference inhibitor), DMSO (0.1%, used as vehicle control) or our compounds of interest (10 µM) for 10 min also at 37 °C. Following that, cell fluorescence was recorded using a microplate reader (λEx = 485 nm; λEm = 525 nm). Baseline fluorescence was recorded for 5 s. Afterwards, cells were stimulated by the addition of the solution of KCl and CaCl2 (90 and 5 mM, respectively) in order to induce the opening of voltage-gated calcium channels. An increase in fluorescence of calcium indicator after inducing calcium flux was recorded for another 30 s. Data were collected from three independent experiments, with eight technical replicates per experiment. Fluorescence intensity values were normalized to the baseline recorded before the induction of calcium flux. The percentage of inhibition was calculated as a reduction of normalized calcium flux in comparison with the DMSO vehicle control. Outliers were detected using the Grubbs test, and any outlying values were excluded from further analysis.
Calcium channel blockade. The Ca^2+ channel blocking capacity of compounds 4a–l and nimodipine, used as a standard at a concentration of 10 μM, was evaluated according to an established methodology.

The target in assay [6] is T4, Human isolated cathepsin B (Homo sapiens, UniProt P07858).
T4 construct: Human isolated cathepsin B (Calbiochem) was assayed spectrophotometrically; purchased Calbiochem
Put plainly: Cathepsin B assay (chromogenic substrate Z-Arg-Arg-pNA). It counts as biochemical. Particulars: 50 µM inhibitor, 60 min, 100% = no inhibitor, n.i. = residual activity ≥ 95%; for remaining activity at 50 µM: read-out: Percentage residual activity of human cathepsin B. The protocol: as §1
Human isolated cathepsin B (Calbiochem) was assayed spectrophotometrically (Cary 50 Bio, Varian) at 405 nm and 37 °C. Assay buffer was 100 mM sodium phosphate buffer pH 6.0, 100 mM NaCl, 5 mM EDTA, 0.01% Brij 35. For activation, an enzyme stock solution was diluted with assay buffer containing 5 mM DTT and incubated for 30 min at 37 °C. The final concentration of the chromogenic substrate Z-Arg-Arg-pNA was 500 µM (0.45 × Km).
as §2

“And” between values parts separate entries of the source, which are not always exact repeats. Equal entries are not always repeated.

T3 sequence (P25774 115-331): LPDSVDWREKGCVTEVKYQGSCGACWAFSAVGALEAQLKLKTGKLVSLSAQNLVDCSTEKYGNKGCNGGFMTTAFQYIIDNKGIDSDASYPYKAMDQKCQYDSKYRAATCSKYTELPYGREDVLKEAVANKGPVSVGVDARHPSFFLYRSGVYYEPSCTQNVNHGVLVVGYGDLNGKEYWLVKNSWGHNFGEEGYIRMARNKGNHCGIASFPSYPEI
T1 sequence (P07711 114-333): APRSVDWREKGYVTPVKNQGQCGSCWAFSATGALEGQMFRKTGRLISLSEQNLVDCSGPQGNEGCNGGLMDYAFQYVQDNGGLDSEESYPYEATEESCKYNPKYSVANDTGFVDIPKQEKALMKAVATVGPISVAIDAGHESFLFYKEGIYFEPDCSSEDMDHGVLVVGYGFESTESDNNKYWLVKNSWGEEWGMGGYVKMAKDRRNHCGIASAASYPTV

In the case of `C#CCN(C)C(=O)C1=C(C)NC(C)=C(C(=O)N(C)CC#C)C1c1ccccc1OC` [4k, 4-(2-Methoxyphenyl)-N2,N3,5,6-tetramethyl-N3,N5-bis(prop-2-yn-1-yl)-1,4-dihydropyridine-3,5-dicarboxamide], the remaining activity at 50 µM stood at 92% in assay [1], 82% in assay [2], 79% in assay [4] and 86% in assay [6]. Further, in assay [3], the ORAC entry is on record as “n.i”. The EC50 in the assay on Nrf2-ARE was determined as 69.4 ± 9.1 µM. Besides, the “Calcium Channel Blockade (%)” value in assay [5] stood at 14%.

For the molecule `C#CCN(C)C(=O)C1=C(C)NC(C)=C(C(=O)N(C)CC#C)C1c1cccc(Cl)c1Cl` [4j, 4-(2,3-Dichlorophenyl)-N2,N3,5,6-tetramethyl-N3,N5-bis(prop-2-yn-1-yl)-1,4-dihydropyridine-3,5-dicarboxamide], the remaining activity at 50 µM was 87% in assay [1], 81% in assay [2], 69% in assay [4] and 90% in assay [6]. In assay [3], the ORAC is 1.82 Trolox equivalents and 1.82 ± 0.05 Trolox equivalents. For the same molecule, in the assay with Nrf2-ARE, the EC50 was 77.2 ± 7.1 µM. Moreover, the “Calcium Channel Blockade (%)” value in assay [5] was 12%.

As for `C#CCNC(=O)C1=C(C)NC(C)=C(C(=O)NCC#C)C1c1ccccc1` [4a, 2,6-Dimethyl-4-phenyl-N3,N5-bis(prop-2-yn-1-yl)-1,4-dihydropyridine-3,5-dicarboxamide], the “Percentage residual activity of human cathepsin L” value in assay [1] is listed as “n.i”. The “Percentage residual activity of human cathepsin K” value in assay [2] is reported as “n.i”. Also, the ORAC in assay [3] was 0.86 Trolox equivalents and 0.86 ± 0.05 Trolox equivalents. Moreover, in the assay on Nrf2-ARE (concentrations up to 150 μM, versus non-treated cells), the “Induction of the Nrf2 pathway (luciferase activity)” value was “no significant activity”. The remaining activity at 50 µM in assay [4] stood at 68%. Besides, in assay [5], the “Calcium Channel Blockade (%)” value was determined as 12%. Moreover, the “Percentage residual activity of human cathepsin B” value in assay [6] is “n.i”.

Values taken from paper PMC10819521 (Pharmaceutics, 2024).
